Patent publication US20050004093A1, “Beta-lactamase inhibitor prodrug” (Pfizer Inc, priority 2003, published 2005)
Converted amounts (≈) assume the structure as drawn. Read-outs that look alike come from different tables or passages of the source.

Key:
[1] = system: Staphylococcus aureus (01A0400); experiment: Murine systemic infection model; type: in vivo; details: single agent, oral, b.i.d. for 1 day, mice, survival day 4 post-challenge
[2] = system: Streptococcus pneumoniae (02J1095); experiment: Murine systemic infection model; type: in vivo; details: single agent, oral, b.i.d. for 1 day, mice, survival day 4 post-challenge
[3] = system: Moraxella catarrhalis (87A1115); experiment: Murine systemic infection model; type: in vivo; details: single agent, oral, b.i.d. for 1 day, mice, survival day 4 post-challenge
[4] = in vitro
Experimental: (§1) The incubation consisted of 990 μl of plasma preincubated for 5 minutes at 37° C. in a 96-well heat block. The incubation was initiated with the addition of 10 gl of a 10 mM stock of compound in 100% methanol. Serial aliquots (100 μl) were removed and transferred to 200 μl of 75/25 acetonitrile/3% perchloric acid at 0, 1, 2, 5, 10, 20, 30, and 60 minutes. The samples were centrifuged, the supernatants transferred to injection vials, and 20 μl was injected onto the HPLC in-line with a LC/MS single quadropole mass spectrometer. The LC/MS system was run in the negative ion mode.

[5] = in vitro; remark: listed apart in the source
Experimental: as §1

[6] = in vitro; remark: listed apart in the source
Experimental: as §1

[7] = system: Streptococcus pneumoniae (02J1095); experiment: Murine pneumonia model; type: in vivo; details: single agent, oral, b.i.d. for 2 days, mice, survival day 10 post-challenge
[8] = system: esterases; experiment: Hydrolysis in the presence of esterases; type: in vitro ADME
From the text: (§2) Based upon this correlation, the rat was used to predict human absorption. […] Thus, oral bioavailability assessments in rats should correlate well with the fraction absorbed in humans.

[9] = in vitro; remark: listed apart in the source
Experimental: as §1

[10] = system: Streptococcus pneumoniae (02J1046); experiment: Gerbil otitis media model; type: in vivo; details: single agent, oral, t.i.d. for 2 days, bacterial clearance day 4 post-challenge
[11] = system: clinical isolates of S. pneumoniae; experiment: Susceptibility assay (NCCLS broth microdilution MIC), non-β-lactamase producing species; details: Streptococcus pneumoniae
[12] = system: Haemophilus influenzae (54A1218); experiment: Gerbil otitis media model; type: in vivo; details: single agent, oral, t.i.d. for 2 days, bacterial clearance day 4 post-challenge
[13] = molecular target: T1, Sme-I β-lactamase, Serratia S6 (Serratia marcescens, UniProt P52682); experiment: biochemical
T1 sequence (P52682 28-294): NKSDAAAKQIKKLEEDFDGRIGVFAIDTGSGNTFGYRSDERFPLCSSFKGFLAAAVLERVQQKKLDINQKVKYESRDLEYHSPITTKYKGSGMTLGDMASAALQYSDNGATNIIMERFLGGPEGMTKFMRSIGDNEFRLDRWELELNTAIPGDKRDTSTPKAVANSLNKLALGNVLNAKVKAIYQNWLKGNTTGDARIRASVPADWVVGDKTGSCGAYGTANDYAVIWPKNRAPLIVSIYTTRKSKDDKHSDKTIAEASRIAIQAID
From the text: Biochemical activity against β-lactamases from other pathogens, including those associated with skin infections:

[14] = Plasma stability, monkey plasma
Experimental: as §1

[15] = molecular target: T2, BRO-1 β-lactamase, M. catarrhalis 87A1115 (Moraxella catarrhalis, UniProt Q59514); experiment: biochemical
T2 sequence (Q59514 26-313): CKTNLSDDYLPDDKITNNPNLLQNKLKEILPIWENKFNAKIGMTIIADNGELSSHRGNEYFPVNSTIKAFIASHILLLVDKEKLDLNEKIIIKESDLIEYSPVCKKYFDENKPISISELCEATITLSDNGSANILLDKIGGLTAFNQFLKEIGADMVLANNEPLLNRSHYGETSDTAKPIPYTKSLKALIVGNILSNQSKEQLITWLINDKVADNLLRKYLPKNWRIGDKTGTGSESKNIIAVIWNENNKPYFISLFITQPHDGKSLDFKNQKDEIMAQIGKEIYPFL

[16] = molecular target: T3, BRO-2 β-lactamase, M. catarrhalis 87A1178 ATCC43617 (Moraxella catarrhalis, UniProt Q59514); experiment: IC50 against β-lactamase in cell extract (colorimetric, chromogenic cephalosporin); type: biochemical; details: BRO-2, M. catarrhalis 87A1178 ATCC43617 cell extract
T3 sequence (Q59514 1-313 D293G): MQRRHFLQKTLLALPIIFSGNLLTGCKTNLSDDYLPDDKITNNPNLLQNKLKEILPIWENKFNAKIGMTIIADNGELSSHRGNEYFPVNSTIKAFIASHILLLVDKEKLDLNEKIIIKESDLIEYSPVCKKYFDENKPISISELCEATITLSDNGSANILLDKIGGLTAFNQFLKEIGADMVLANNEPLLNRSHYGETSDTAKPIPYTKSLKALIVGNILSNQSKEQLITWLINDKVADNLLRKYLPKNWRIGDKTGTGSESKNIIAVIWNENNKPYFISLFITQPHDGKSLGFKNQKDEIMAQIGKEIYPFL

[17] = molecular target: T4, ROB-1 β-lactamase, H. influenzae ATCC43334 (Haemophilus influenzae, UniProt P67918); experiment: biochemical
T4 sequence (P67918 34-305): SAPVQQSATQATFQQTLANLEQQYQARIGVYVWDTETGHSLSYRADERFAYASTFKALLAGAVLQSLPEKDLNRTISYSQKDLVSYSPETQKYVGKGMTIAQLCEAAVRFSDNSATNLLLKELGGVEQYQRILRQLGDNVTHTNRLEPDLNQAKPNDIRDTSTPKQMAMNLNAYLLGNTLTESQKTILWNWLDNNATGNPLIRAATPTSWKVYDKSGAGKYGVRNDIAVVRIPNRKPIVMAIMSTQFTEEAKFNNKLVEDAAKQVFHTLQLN

[18] = Hepatic extraction, rat hepatocytes; type: in vitro ADME
From the text: as §2

[19] = administered orally, rodents, preclinical studies; cited from earlier work
[20] = Hepatic extraction, human hepatocytes; type: in vitro ADME
From the text: as §2

Structure (SMILES)	ED50 [1]	ED50 [2]	ED50 [3]	half-life at 100 μM ([4]; rat, plasma)	half-life at 100 μM ([5]; mouse, plasma)	half-life at 100 μM ([6]; human, plasma)	ED50 [7]	half-life at 100 μM ([9]; dog, plasma)	IC50 [13]	IC50 [15]	IC50 [16]	IC50 [17]	also measured
CC1(C)[C@H](C(=O)OCOC(=O)OC2CCOCC2)N2C(=O)[C@@H](CO)[C@H]2S1(=O)=O [Prodrug 1, 4-Thia-1-azabicyclo[3.2.0]heptane-2-carboxylic acid, 6-(hydroxymethyl)-3,3-dimethyl-7-oxo-,[[[(tetrahydro-2H-pyran-4-yl)oxy]carbonyl]oxy]methyl ester, 4,4-dioxide (2S,5R,6R)]	> 25 mg/kg	> 25 mg/kg	> 25 mg/kg	< 0.0333 h	< 0.0333 h	0.112 h	> 25 mg/kg	0.167 h					melting point: 136 °C; time to hydrolysis [8]: within a few minutes
CC1(C)S[C@@H]2[C@H](NC(=O)[C@H](N)c3ccc(O)cc3)C(=O)N2[C@H]1C(=O)O [Amoxicillin, amoxicillin]	> 200 mg/kg	< 100 mg/kg	> 200 mg/kg				< 100 mg/kg						ED50 [10]: > 50 mg/kg; MIC ([11]; read-out: Amoxicillin MICs, 12 penicillin-susceptible S. pneumoniae isolates): 0.0156 to 0.06 µg/mL (≈ 0.0427 to 0.164 µM); MIC ([11]; read-out: Amoxicillin MICs, 21 penicillin-intermediate S. pneumoniae): 0.03 to 1 µg/mL (≈ 0.0821 to 2.74 µM); MIC50 ([11]; read-out: amoxicillin MIC50): 2 µg/mL (≈ 5.47 µM); MIC90 ([11]; read-out: amoxicillin MIC90): 4 µg/mL (≈ 10.9 µM); ED50 [12]: > 50 mg/kg
CC1(C)[C@H](C(=O)[O-])N2C(=O)[C@@H](CO)[C@H]2S1(=O)=O.[Na+] [Na-HMPAS, 4-Thia-1-azabicyclo [3,2,0]heptane-2-carboxylic acid, 6-(hydroxymethyl)-3,3-dimethyl-7-oxo-,4,4-dioxide, monosodium salt, (2S,5R,6R)]									0.68 µM	0.143 µM	0.32 µM	0.01 µM	half-life at 100 μM [14]: > 4 h; half-life at 100 μM [4]: 3.4 h; half-life at 100 μM [5]: 3.9 h; half-life at 100 μM [6]: > 4 h; half-life at 100 μM [9]: > 4 h
O=C(O)[C@H]1/C(=C/CO)O[C@@H]2CC(=O)N21 [Clavulanate, lithium clavulanate]				3.3 h	> 4 h	2.6 h		2.8 h	19.6 µM	0.14 µM	0.11 µM	0.04 µM	half-life at 100 μM ([14]; monkey, plasma): 3.6 h
CC1(C)C(C(=O)O)N2C(=O)C(CO)C2S1(=O)=O (stereo not drawn) [Prodrug 6-β-HMPAS, 6-β-hydroxymethylpenicillanic acid sulfone]													hepatic extraction [18]: minimal; oral absorption [19]: very poorly absorbed; hepatic extraction [20]: minimal
